The values that follow come from article PMC8058163 (Clinical pharmacology and therapeutics, 2020).

Where “and” joins values, the source holds several entries; their conditions need not be identical. Equal values may be shown once. Read-outs that look alike come from different tables or passages of the source.

By inhibition is commonly meant the share of the control response that was lost under treatment. As usually defined, the IC50 is the concentration at which inhibition is half-maximal. Read a high IC50 as weaker potency.

One series concerns the target T1, OAT1 (Homo sapiens, UniProt Q4U2R8).
T1 sequence (Q4U2R8 1-563): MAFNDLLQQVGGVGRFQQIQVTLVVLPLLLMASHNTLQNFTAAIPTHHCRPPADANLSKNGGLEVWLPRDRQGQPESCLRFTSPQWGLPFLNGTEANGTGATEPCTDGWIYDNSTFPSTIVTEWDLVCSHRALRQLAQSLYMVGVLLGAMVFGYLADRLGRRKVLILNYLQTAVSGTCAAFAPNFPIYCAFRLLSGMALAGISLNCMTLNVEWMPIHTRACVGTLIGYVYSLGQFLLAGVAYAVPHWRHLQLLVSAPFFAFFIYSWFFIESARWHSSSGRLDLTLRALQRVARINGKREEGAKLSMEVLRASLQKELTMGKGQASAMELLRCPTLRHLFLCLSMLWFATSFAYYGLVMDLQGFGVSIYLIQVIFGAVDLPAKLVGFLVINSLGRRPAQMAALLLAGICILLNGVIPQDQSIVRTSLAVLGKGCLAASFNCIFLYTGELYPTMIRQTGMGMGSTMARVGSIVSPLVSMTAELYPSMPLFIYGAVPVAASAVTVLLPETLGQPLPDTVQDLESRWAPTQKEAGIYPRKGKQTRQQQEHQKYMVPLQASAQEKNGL
The series is described as follows: Transporter inhibition assay, OAT1. In kind it is cell-based. The note with it: cell line (HEK293 or MDCKII) stably expressing OAT1.

For another series, the system named is all transporters tested. The series is described as follows: Transporter inhibition assays, summary over the panel. Particulars: against all transporters tested.
The next series addresses T2, OCT1 (Homo sapiens, UniProt O15245).
T2 sequence (O15245 1-554): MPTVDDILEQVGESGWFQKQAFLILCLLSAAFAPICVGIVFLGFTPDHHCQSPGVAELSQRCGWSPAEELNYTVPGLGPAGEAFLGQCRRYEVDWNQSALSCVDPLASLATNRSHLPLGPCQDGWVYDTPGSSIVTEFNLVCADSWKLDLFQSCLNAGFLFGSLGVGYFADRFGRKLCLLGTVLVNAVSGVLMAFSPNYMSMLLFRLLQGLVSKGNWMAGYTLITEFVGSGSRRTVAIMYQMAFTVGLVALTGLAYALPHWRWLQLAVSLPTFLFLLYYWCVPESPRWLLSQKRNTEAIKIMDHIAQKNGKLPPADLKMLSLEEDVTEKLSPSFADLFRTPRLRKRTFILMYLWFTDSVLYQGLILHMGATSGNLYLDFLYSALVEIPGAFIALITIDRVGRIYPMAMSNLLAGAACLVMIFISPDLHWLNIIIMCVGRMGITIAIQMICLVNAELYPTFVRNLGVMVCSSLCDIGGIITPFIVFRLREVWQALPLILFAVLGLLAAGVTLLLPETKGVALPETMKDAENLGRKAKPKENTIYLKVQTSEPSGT
Nature of the series: Transporter inhibition assay, OCT1.

A further series addresses MATE2-K (Homo sapiens, UniProt Q86VL8). Nature of the series: Transporter inhibition assay, MATE2-K. In kind it is cell-based. The note with it: isolated alkaloids, mean [95% CI], three technical replicates.
Series [1] in a line: Estimated berberine concentrations and parameters for the basic models. The note with it: 29.8 mg berberine in a 1-gram capsule / 250 mL.

Sequence of MATE2-K (Q86VL8 1-566 isoform Q86VL8-3): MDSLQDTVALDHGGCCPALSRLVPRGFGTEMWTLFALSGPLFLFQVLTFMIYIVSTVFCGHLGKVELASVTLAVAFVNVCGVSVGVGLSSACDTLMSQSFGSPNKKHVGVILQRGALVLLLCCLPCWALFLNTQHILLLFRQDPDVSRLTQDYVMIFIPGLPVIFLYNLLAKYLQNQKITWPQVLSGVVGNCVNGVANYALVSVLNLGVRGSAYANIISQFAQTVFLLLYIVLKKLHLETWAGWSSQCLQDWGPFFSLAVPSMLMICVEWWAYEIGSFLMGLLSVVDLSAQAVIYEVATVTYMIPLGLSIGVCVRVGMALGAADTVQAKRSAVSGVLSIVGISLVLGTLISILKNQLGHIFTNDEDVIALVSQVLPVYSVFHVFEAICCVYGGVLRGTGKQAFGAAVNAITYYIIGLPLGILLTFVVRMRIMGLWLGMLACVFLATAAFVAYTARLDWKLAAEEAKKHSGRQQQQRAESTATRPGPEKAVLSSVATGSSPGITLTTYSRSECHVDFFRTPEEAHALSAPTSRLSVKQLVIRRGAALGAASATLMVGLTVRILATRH

`CN1CCc2cc3c(cc2C1O)OCO3` (stereo not drawn) [Hydrastinine, hydrastinine chloride monohydrate] yielded an inhibition at 100 μM on OAT1 of less than 20%. The molecule also returned an IC50 in the series with all transporters tested not below 80 µM.

In the case of `COc1ccc2c(c1OC)C(=O)O[C@@H]2[C@H]1c2cc3c(cc2CCN1C)OCO3` [(−)-β-Hydrastine, (1R,9S)-(−)-β-Hydrastine], 6.6 µM corresponded to half-maximal inhibition against OCT1 (OCT1, isolated alkaloids, mean [95% CI], three technical replicates) (IC50).

As to `COc1ccc2cc3[n+](cc2c1OC)CCc1cc2c(cc1-3)OCO2` [Berberine, berberine chloride], the IC50 against MATE2-K is < 1 µM and 0.77 µM; at OCT1, 19 µM. Further, the “estimated concentration in the gut (Igut)” value in series [1] is ~ 350 μM.
